# In US6586478B2, “Methods and compositions for improving sleep” (Cellegy Canada, priority 2000, dated 2003):
# Columns and labels:
# [1] = test system: sleep disorders including PLMS; experiment: Example 1, Subject 1: person with sleep disorders including PLMS; type: in vivo, human; conditions: Subject 1, history before the GTN patch
# Experimental: The subject was a person with a history of sleep disorders including PLMS for at least 4 years. Over this period the subject had five visits to a sleep laboratory, which confirmed their diagnosis of PLMS, and through which various treatments were devised. These included drug therapies with PAXIL/WELLBUTRIN, CLOMIPRAMINE, IMOVANE, DESIPPAMINE, ZOLOFT, TEMAZEPAM, TRYPTAN, and FLUVOXAMINE.
# At this point, the subject was administered a 1.65 cm^2 GTN patch as described above in reference to Table 4. The patch was applied just before retiring at night. This was repeated for three consecutive nights. […] On the fourth night, the subject applied a 1.1 cm^2 GTN patch, and on the fifth night, a 0.825 cm^2 GTN patch.
# [2] = Plasma levels of nitroglycerin delivered from transdermal patches; type: in vivo
# Experimental: (§1) 3M MINITRAN transdermal nitroglycerin patches of 10 cm^2 and 20 cm^2 areas deliver plasma levels of 102 pg/mL and between 129 pg/mL and 310 pg/mL, respectively. The 3.3 cm^2 patch, with a total loading of 9 mg of nitroglycerin in each patch, has a mean rate of drug delivery of about […]. The two smaller patches (1.65 cm^2 and 0.825 cm^2) used in the studies described herein had areas of one half and one fourth the 3.33 cm^2 patch. Based on the ratios of patch surface area and assuming linearity in the rates of drug delivery, the estimated rates of delivery and extrapolated values of plasma levels of nitroglycerin for the three low or microdose patches are given in Table 1.
# [3] = Rate of drug delivery (release) from transdermal nitroglycerin patches; conditions: after 8 hours, 0.83 cm^2 patch
# Experimental: as §1
# Nitroglycerin for the treatment of RLS, PLMS and sleep symptoms was provided in single dose transdermal patches packaged in individual foil pouches. Each single dose transdermal patch has a surface area of 0.83 cm^2, contains 2.25 mg of nitroglycerin, and releases the nitroglycerin at a rate of 0.025 mg/hour (0.75 mg/cm^2/24 hours). After 8 hours 85% of the nitroglycerin remains entrained in the adhesive substrate of the transdermal patch.
Compound,success of earlier drug therapies in treating the symptoms of the sleep disorder [1],other results
CN(C)CCCN1c2ccccc2CCc2ccc(Cl)cc21 [CLOMIPRAMINE],None of the drug therapies were successful,–
CNCCCN1c2ccccc2CCc2ccccc21 [DESIPPAMINE],None of the drug therapies were successful,–
COCCCC/C(=N\OCCN)c1ccc(C(F)(F)F)cc1 [FLUVOXAMINE],None of the drug therapies were successful,–
CN1CCN(C(=O)OC2c3nccnc3C(=O)N2c2ccc(Cl)cn2)CC1 (centres unmarked) [IMOVANE],None of the drug therapies were successful,–
"O=[N+]([O-])OCC(CO[N+](=O)[O-])O[N+](=O)[O-] [Nitroglycerin, nitroglycerin]",–,"Plasma Level ([2]; 0.825 cm^2 patch, extrapolated from larger-size patches assuming linearity): 9^3 pg/mL; Plasma Level ([2]; 1.65 cm^2 patch, extrapolated from larger-size patches assuming linearity): 17^3 pg/mL; Plasma Level ([2]; 3.33 cm^2 patch, extrapolated from larger-size patches assuming linearity): 34^3 pg/mL; Plasma Level ([2]; 10 cm^2 patch): 102^1 pg/mL; nitroglycerin remaining entrained in the adhesive substrate of the patch [3]: 85%"
"CN1C(=O)C(O)N=C(c2ccccc2)c2cc(Cl)ccc21 (centres unmarked) [TEMAZEPAM, temazepam]",None of the drug therapies were successful,–
CN[C@H]1CC[C@@H](c2ccc(Cl)c(Cl)c2)c2ccccc21 [ZOLOFT],None of the drug therapies were successful,–
